Test results published in patent publication US12161620B2, “Devices and methods for facilitating and controlling use of a medication” (priority 2013, dated 2024).
Where two headings read alike, the source gives them in different places.

Assays:
[1] = cited from earlier work
[2] = PubChem; cited from earlier work
[3] = pungency; cited from earlier work
[4] = cited from earlier work; remark: listed apart in the source
[5] = Taste of denatonium saccharide solution before and after activated carbon treatment (Example 11); conditions: 90 ppm in water
Experimental: Example 11. In a lab evaluation, 90 ppm denatonium saccharide in water was prepared. To 40 mL samples were added 100 mg and […], respectively, of powdered activated carbon Ecosorb EC-947. The samples were stirred for about 2 days to equilibrate.

[6] = taste detection; cited from earlier work
[7] = Taste of sucrose octaacetate solution before and after lime treatment (Example 10); conditions: 60 ppm in water
[8] = in vivo; cited from earlier work

CCN(Cc1cccc(S(=O)(=O)O)c1)c1ccc(C(=C2C=CC(=[N+](CC)Cc3cccc(S(=O)(=O)O)c3)C=C2)c2ccccc2S(=O)(=O)[O-])cc1 [Brilliant Blue]
solubility in water [1]: water-soluble

COc1cc(CNC(=O)CCCC/C=C/C(C)C)ccc1O [Capsaicin, capsaicin]
LogP [2]: 3.6
solubility in alcohol [1]: soluble in alcohol
water solubility [1]: ~10 ppm
threshold of effect [3]: about 0.02 ppm

CN(C)c1ccc(C(=C2C=CC(=[N+](C)C)C=C2)c2ccc(N(C)C)cc2)cc1.[Cl-] [Gentian Violet]
solubility in water [1]: soluble in water

O=C(/C=C/C=C/c1ccc2c(c1)OCO2)N1CCCCC1 [Piperine, piperine]
LogP [2]: 3.5
solubility in alcohol [1]: soluble in alcohol
water solubility [1]: 40 ppm
threshold of effect [3]: about 1.35 ppm

CC(=O)OCC(COC(C)=O)OC(C)=O [Triacetin, triacetin]
half-life ([4]; pH 9): < 24 h
pH around which stable ([4]; stable only around this pH): ~4

CC[N+](CC)(CC(=O)Nc1c(C)cccc1C)Cc1ccccc1.O=C1[N-]S(=O)(=O)c2ccccc21 [denatonium saccharide]
taste of untreated sample [5]: intensely bitter
duration of taste after administration ([5]; untreated, about 0.1 mL on the tongue): at least two hours

CC[N+](CC)(CC(=O)Nc1c(C)cccc1C)Cc1ccccc1 [denatonium]
level at which detectable [6]: 0.01 ppm

CC(=O)OC[C@H]1O[C@@](COC(C)=O)(O[C@H]2O[C@H](COC(C)=O)[C@@H](OC(C)=O)[C@H](OC(C)=O)[C@H]2OC(C)=O)[C@@H](OC(C)=O)[C@@H]1OC(C)=O [sucrose octaacetate]
level at which detectable [6]: 10 ppm
LogP [2]: −0.9
taste of untreated solution [7]: intensely bitter
dose that is not lethal [8]: 5000 mg/kg
solubility in alcohol [1]: very soluble in alcohols
water solubility [1]: 900 ppm
water solubility ([1]; listed as Sucrose octaacetate): about 900 ppm
